The text below walks through data of ChEMBL document CHEMBL3797087, “Synthesis of novel triazole/isoxazole functionalized 7-(trifluoromethyl)pyrido[2,3-d]pyrimidine derivatives as promising anticancer and antibacterial agents” (2016).

Structures are written as SMILES. In brackets after ≈: the same amount, converted by molar mass.

Holding throughout (assay type): functional
The test system of test [1] is A549. As to the kind of experiment: Anticancer activity against human A549 cells after 48 hrs by SRB assay. The note with it: A549, 48 h. A general note: Sulforhodamine B stains cellular protein and so reports cell mass.
Test [2] concerns HeLa. As to the kind of experiment: Anticancer activity against human HeLa cells after 48 hrs by SRB assay.
Test [3] has as its system MDA-MB-231. As to the kind of experiment: Anticancer activity against human MDA-MB-231 cells after 48 hrs by SRB assay. The note with it: MDA-MB-231, 48 h.
Test [4] in a line: Anticancer activity against human PANC1 cells after 48 hrs by SRB assay. The note with it: PANC-1, 48 h.
Test [5] has as its system Bacillus licheniformis. The test is described as follows: Antibacterial activity against Bacillus licheniformis after 24 hrs by agar diffusion assay. (Agar diffusion results depend on both activity and mobility in agar.)
The test system of test [6] is Streptococcus pneumoniae. As to the kind of experiment: Antibacterial activity against Streptococcus pneumoniae after 24 hrs by agar diffusion assay.
Test [7] concerns Staphylococcus aureus. The test is described as follows: Antibacterial activity against Staphylococcus aureus after 24 hrs by agar diffusion assay.
For test [8], the system named is Pseudomonas aeruginosa. As to the kind of experiment: Antibacterial activity against Pseudomonas aeruginosa after 24 hrs by agar diffusion assay.
Test [9] deals with Klebsiella pneumoniae. The test is described as follows: Antibacterial activity against Klebsiella pneumoniae after 24 hrs by agar diffusion assay.
The test system of test [10] is Escherichia coli. The test is described as follows: Antibacterial activity against Escherichia coli after 24 hrs by agar diffusion assay.
Test [11] deals with Pseudomonas aeruginosa. As to the kind of experiment: Antibacterial activity against Pseudomonas aeruginosa after 24 to 48 hrs.
In test [12] the test system is Streptococcus pneumoniae. As to the kind of experiment: Antibacterial activity against Streptococcus pneumoniae after 24 to 48 hrs.
Test [13] deals with Bacillus licheniformis. As to the kind of experiment: Antibacterial activity against Bacillus licheniformis after 24 to 48 hrs.
Test [14] has as its system Staphylococcus aureus. The test is described as follows: Antibacterial activity against Staphylococcus aureus after 24 to 48 hrs.
Test [15] has as its system Klebsiella pneumoniae. As to the kind of experiment: Antibacterial activity against Klebsiella pneumoniae after 24 to 48 hrs.
The test system of test [16] is Escherichia coli. As to the kind of experiment: Antibacterial activity against Escherichia coli after 24 to 48 hrs.

Regarding `CCc1nc2nc(C(F)(F)F)ccc2c(=O)n1Cc1cn(CCC(F)(F)C(F)(F)C(F)(F)C(F)(F)C(F)(F)C(F)(F)F)nn1`, the GI50 in test [1] came out at 30 nM; in [2] it was 930 nM; in test [3] it was 2830 nM; in test [4], 730 nM.

For the molecule `O=c1c2ccc(C(F)(F)F)nc2nc(-c2ccccc2)n1Cc1cn(-c2ccc([N+](=O)[O-])cc2)nn1`, the GI50 in [1] is 770 nM; in test [2] it was 860 nM; in test [3], 1240 nM; in [4], 2550 nM.

Consider `CCCCCCCCCCn1cc(COc2nc(-c3ccccc3)nc3nc(C(F)(F)F)ccc23)nn1`, for which the GI50 in test [1] turned out to be 2310 nM; in test [2] it was 1040 nM; in test [3] it was 1050 nM; in [4], 490 nM. Besides, the “inhibition zone (IZ)” value in [5] is listed as 8 mm; in test [6], 16 mm; in [7], 10 mm.

`CCc1nc2nc(C(F)(F)F)ccc2c(=O)n1Cc1cn(CC(=O)Nc2ccccc2)nn1`: the GI50 in test [1] came to 5260 nM; in test [2], 860 nM; in [3], 1700 nM; in test [4], 320 nM.

For the molecule `CCCCCCCCCCn1cc(Cn2c(-c3ccco3)nc3nc(C(F)(F)F)ccc3c2=O)nn1`, the GI50 in [1] stood at 200 nM; in test [2] it was 870 nM; in test [3] it was 1100 nM; in test [4] it was 3180 nM.

`FC(F)(F)c1ccc2c(OCc3cn(CCC(F)(F)C(F)(F)C(F)(F)C(F)(F)C(F)(F)C(F)(F)F)nn3)nc(-c3ccccc3)nc2n1`: the GI50 is 1910 nM in [1], 1200 nM in test [2], 520 nM in test [3] and 2990 nM in test [4].

For `O=c1c2ccc(C(F)(F)F)nc2ncn1Cc1cn(-c2ccc([N+](=O)[O-])cc2)nn1`, the GI50 came out at 300 nM in test [1], 890 nM in test [2], 140 nM in test [3] and 1890 nM in test [4].

Take `O=C(Cn1cc(COc2nc(-c3ccccc3)nc3nc(C(F)(F)F)ccc23)nn1)Nc1ccccc1`: the GI50 in test [1] came out at 140 nM; in test [2], 890 nM; in test [3], 650 nM; in [4], 4500 nM.

Consider `O=c1c2ccc(C(F)(F)F)nc2ncn1Cc1cc(-c2ccc(Br)cc2)no1`, for which the GI50 in [1] was 3810 nM; in test [2], 1240 nM; in [3], 710 nM; in [4], 1160 nM.

Consider `CCCCCCCCn1cc(Cn2c(CC)nc3nc(C(F)(F)F)ccc3c2=O)nn1`, for which the GI50 in test [1] amounted to 2870 nM; in test [2], 1270 nM; in [3] it was 1340 nM; in test [4], 3280 nM. The “inhibition zone (IZ)” value amounted to 8 mm in [5]; 6 mm in [6]; 7 mm in test [8]; 9 mm in [7]; 7 mm in test [9]; 7 mm in [10].

`O=c1c2ccc(C(F)(F)F)nc2ncn1Cc1cc(-c2ccc(Cl)cc2)no1`: the GI50 was found to be 1090 nM in test [1], 840 nM in [2], 870 nM in test [3] and 7080 nM in test [4].

Turning to `O=c1c2ccc(C(F)(F)F)nc2nc(-c2ccccc2)n1Cc1cn(CCC(F)(F)C(F)(F)C(F)(F)C(F)(F)C(F)(F)C(F)(F)F)nn1`, the GI50 in [1] was 520 nM; in [2], 870 nM; in test [3], 9890 nM; in test [4], 2950 nM.

`O=c1c2ccc(C(F)(F)F)nc2nc(-c2ccccc2)n1Cc1cc(-c2cccc3ccccc23)no1`: the GI50 came out at 3140 nM in [1], 910 nM in test [2], 1010 nM in [3] and 140 nM in test [4].

On to `COc1cc(-n2cc(COc3nc(-c4ccccc4)nc4nc(C(F)(F)F)ccc34)nn2)cc(OC)c1OC`, for which the GI50 stood at 4050 nM in [1], 890 nM in test [2], 240 nM in test [3] and 820 nM in [4].

Turning to `CCCCCCCCCCn1cc(Cn2c(CC)nc3nc(C(F)(F)F)ccc3c2=O)nn1`, the MIC in test [11] came to 12.5 µg/mL (≈ 26.9 µM); in test [12], 12.5 µg/mL (≈ 26.9 µM); in test [13], 12.5 µg/mL (≈ 26.9 µM); in [14], 12.5 µg/mL (≈ 26.9 µM); in test [15], 25 µg/mL (≈ 53.8 µM); in [16], 25 µg/mL (≈ 53.8 µM). In addition, the GI50 worked out at 860 nM in test [1], 810 nM in test [2], 2210 nM in [3] and 20 nM in test [4]. The “inhibition zone (IZ)” value in test [5] is 21 mm; in [6], 28 mm; in test [8], 16 mm; in [7], 15 mm; in [9] it was 19 mm; in test [10], 25 mm.

For `CCCCCCCCn1cc(COc2nc(-c3ccccc3)nc3nc(C(F)(F)F)ccc23)nn1`, the MIC was 12.5 µg/mL (≈ 25.8 µM) in test [12], 25 µg/mL (≈ 51.6 µM) in [13] and 12.5 µg/mL (≈ 25.8 µM) in [14]. The GI50 was found to be 5330 nM in test [1], 950 nM in [2], 570 nM in test [3] and 2660 nM in test [4]. Further, the “inhibition zone (IZ)” value in test [5] came to 21 mm; in [6], 26 mm; in [7], 22 mm; in test [10], 8 mm.

`O=C(O)c1cn(C2CC2)c2cc(N3CCNCC3)c(F)cc2c1=O` [CIPROFLOXACIN]: the MIC in [12], in test [13], in test [14], in test [15] and in test [16] was 12.5 µg/mL (≈ 37.7 µM) throughout. The “inhibition zone (IZ)” value is 24 mm in [5]; 23 mm in test [6]; 25 mm in test [8]; 25 mm in [7]; 22 mm in test [9].

Consider `COC(=O)Nc1nc2cc(C(=O)c3cccs3)ccc2[nH]1` [NOCODAZOLE], for which the GI50 in [1] was found to be 80 nM; in test [2], 63 nM; in test [3], 42 nM; in [4], 29 nM.

For `CO[C@H]1/C=C/O[C@@]2(C)Oc3c(C)c(O)c4c(O)c(c(/C=N/N5CCN(C)CC5)c(O)c4c3C2=O)NC(=O)/C(C)=C\C=C\[C@H](C)[C@H](O)[C@@H](C)[C@@H](O)[C@@H](C)[C@H](OC(C)=O)[C@@H]1C` [RIFAMPIN], the “inhibition zone (IZ)” value in test [5] worked out at 24 mm; in [6], 25 mm; in test [8] it was 29 mm; in test [7], 25 mm; in [9] it was 27 mm; in test [10] it was 27 mm.

One may read the GI50 as the concentration giving 50% growth inhibition. The term MIC denotes the smallest concentration in the dilution series that meets the test's criterion for growth inhibition.
